How the values were obtained:
[1] = test system: TCR3; assay: I-Ag7 SABR-II HIP library screen, enrichment score; type: cell-based, mouse
Source text: (§1) Given the predominance of HIP-reactive TCRs, we hypothesized that there may be other TCRs that respond to HIPs that were not encoded in our initial library configuration. While the initial I-Ag7 SABR-II library consisted of a number of HIPs, HIP formation is thought to be more widespread in pancreatic β-cells[52],[70]. Therefore, we sought to construct a defined, HIP-focused library to probe whether there were any undiscovered HIP-reactive TCRs that could be recognized by the clonally expanded TCR in our dataset. To test this, we utilized a published proteomic dataset, which predicted that several proteins that were highly expressed in secretory granules of β-cells may contribute to HIP formation. Using their predictions, we built a theoretical HIP library, in which all possible ‘left’ halves of the insulin C chain derived from natural cleavage products were fused to ‘right’ halves derived from secretory granule proteins (Fig. 5a). This 2,561-epitope library (12–25 amino acids per epitope) consisted of only HIPs and a small number of positive control epitopes (Supplementary Table 5). We screened the top three clonally expanded TCRs (TCR1, TCR2 and TCR3) against this library, as these TCRs had not been de-convoluted using the original library. […] To confirm that the HIP itself was important for the cognate interaction, we cloned single 14-mer epitopes into SABR-IIs consisting of seven amino acids of the left portion of the HIP and seven amino acids of the right portion of the HIP. In this way, no nine amino acids from either peptide sequence alone could occupy the binding pocket of I-Ag7, ensuring that TCR reactivity spanned the HIP junction. […] Of note, in all the epitopes that were tested, the ‘left’ half derived from insulin C was conserved, whereas the ‘right’ halves were derived from several other proteins (Fig. 5d). […] Moreover, the promiscuous binding of TCR3 to HIPs corroborates evidence from other NOD mouse-derived TCRs reacting to multiple HIPs[72].
(§2) To generate the I-Ag7 restricted SABR library, we combined all Immune Epitope Database epitopes with a published immunopeptidome generated by Wan et al.[51]. Sequences were filtered remove all post-translational modifications except deamidation and HIPs and trimmed between 9–25 amino acid lengths. For the insulin C HIP and HLA-DQ8 library, non-contiguous epitopes from Wiles et al.[66] as well as all Immune Epitope Database epitopes were combined to generate the epitope list. Epitope sequences were back-translated using the backtranslate_fast.py script.
For SABR library screens, 3 × 10^6 NFAT–GFP Jurkat cells expressing the SABR library were labeled with CellTrace Violet (BioLegend) according to the manufacturer’s protocol before incubation with 3 × 10^6 Jurkat cells expressing the TCR of interest. These mixtures were incubated in a six-well plate for 16–20 h. Cells were stained with anti-CD69-APC-Cy7 where indicated (BioLegend) and the top 1–2% of GFP^+CD69^+ cells were sorted for genomic DNA extraction, indexing and sequencing (see below). Multiplexed assays were scaled on a per-TCR basis (for example 3 × 10^6 for each of three TCRs against 9 × 10^6 library cells). For single SABR assays, unless otherwise defined, 5 × 10^5 SABR expressing NFAT–GFP Jurkat cells (or 5KC cells) were labeled with CellTrace Violet (BioLegend) according to the manufacturer’s protocol before incubation with 5 × 10^5 TCR-expressing Jurkat cells (or 5KC cells) in a round-bottom 96-well plate for 16–20 h. Cells were stained with anti-CD69-APC-Cy7 when indicated and acquired on the Attune NxT flow cytometer (Thermo Fisher Scientific). All flow analysis was performed using FlowJo (BD). For Daudi cell co-culture, 1 × 10^6 Jurkat cells expressing the TCR of interest were incubated with 1 × 10^6 Daudi cells expressing a SABR of interest for 3 days. On day 3, cells were labeled with anti-RT1B-PE and anti-Fas-APC-Cy7 before being acquired on the Attune NxT flow cytometer. […]

[2] = test system: Jurkat cells, No TCR; assay: Single SABR-II co-incubation, background without TCR; type: cell-based, human; conditions: No TCR, Fig 5C
Source text: (§3) We performed systematic screening of the cloned TCRs against the I-Ag7 SABR-II library. Several TCRs along with a positive control (such as BDC2.5 or 4-8Ins) were screened individually against the library for each sort (Extended Data Fig. 6a and Supplementary Table 4). High- and low-confidence ES zones for each screened TCR were defined by the ES values of the control TCR’s cognate epitopes. For all putative cognate epitopes, single SABR-IIs were constructed, expressed in NFAT–GFP Jurkat cells and used for co-incubation with the corresponding TCRs. Co-incubation assays that yielded a GFP signal higher than that obtained in assays with no TCR were determined to be positive and the epitopes deemed true cognate ligands (Extended Data Fig. 6b,c). Using this strategy, we obtained epitopes in the high-confidence zone for eight TCRs (Fig. 3a and Extended Data Fig. 6b,d). Among numerous altered peptide ligands (APLs), these TCRs recognized the physiological InsC-ChgA HIP ([…] and analogs, recognized by TCR5, TCR6B, TCR9 and TCR34), InsC-Iapp HIP ([…] and analogs, recognized by TCR4 and TCR15) and InsB9:23 ([…] and analogs recognized by TCR24 and TCR37). These cognate high-confidence hits were validated using single SABR-II co-incubation assays (Fig. 3b and Extended Data Fig. 7a). Further validations using in vitro mouse interleukin-2 (mIL-2) secretion by TCR-expressing 5KC reporter cells[13] or CD25 expression by TCR-expressing splenic CD4^+ T cells upon stimulation with the cognate epitope were performed (Extended Data Fig. 7b,c). Furthermore, low-confidence hits were called for ten TCRs and tested in co-incubation assays.
(§4) For SABR library screens, 3 × 10^6 NFAT–GFP Jurkat cells expressing the SABR library were labeled with CellTrace Violet (BioLegend) according to the manufacturer’s protocol before incubation with 3 × 10^6 Jurkat cells expressing the TCR of interest. These mixtures were incubated in a six-well plate for 16–20 h. Cells were stained with anti-CD69-APC-Cy7 where indicated (BioLegend) and the top 1–2% of GFP^+CD69^+ cells were sorted for genomic DNA extraction, indexing and sequencing (see below). Multiplexed assays were scaled on a per-TCR basis (for example 3 × 10^6 for each of three TCRs against 9 × 10^6 library cells). For single SABR assays, unless otherwise defined, 5 × 10^5 SABR expressing NFAT–GFP Jurkat cells (or 5KC cells) were labeled with CellTrace Violet (BioLegend) according to the manufacturer’s protocol before incubation with 5 × 10^5 TCR-expressing Jurkat cells (or 5KC cells) in a round-bottom 96-well plate for 16–20 h. Cells were stained with anti-CD69-APC-Cy7 when indicated and acquired on the Attune NxT flow cytometer (Thermo Fisher Scientific). All flow analysis was performed using FlowJo (BD). For Daudi cell co-culture, 1 × 10^6 Jurkat cells expressing the TCR of interest were incubated with 1 × 10^6 Daudi cells expressing a SABR of interest for 3 days. On day 3, cells were labeled with anti-RT1B-PE and anti-Fas-APC-Cy7 before being acquired on the Attune NxT flow cytometer.

[3] = test system: TCR3; assay: Single SABR-II co-incubation, NFAT-GFP Jurkat; type: cell-based, mouse; conditions: TCR 3, Fig 5C
Source text: as §1, §4

[4] = test system: TCR4; assay: Single SABR-II co-incubation, NFAT-GFP Jurkat; type: cell-based, mouse; conditions: TCR 4, Fig 5C
Source text: as §3, §4

[5] = test system: GSE.20D11 TCR; assay: HLA-DQ8 SABR-II (+ HLA-A2.1 SABR) library screen, enrichment score; type: cell-based, human
Source text: To test whether HLA-DQ8 SABR-II could be used for antigen discovery, we curated a list of insulin B, insulin C and HIP epitopes published by Wiles et al.[58] and cloned them into the DQ8 SABR-II backbone using the same pooled cloning strategy as the I-Ag7 SABR-II library (Supplementary Table 2). Furthermore, we combined SABR-I (the HLA-A*0201 library reported in our previous work[27]) and SABR-II libraries at a cellular level and screened against the GSE.20D11 TCR.
as §2, §4
Genomic DNA was extracted from sorted cells immediately after sorting, using the PureLink genomic DNA extraction kit (Life Technologies). The integrated SABR vectors were amplified with KOD polymerase (Millipore) and two rounds of amplification. In the first round, IDT-UD-SABR-C2-F and IDT-UD-SABR-C2-R primers were used to amplify the epitope. In the second round, UDI0001-R and UDI0001-F primers (representative of index 1) were used to add Illumina unique dual indexes (UDIs) to the amplicons. A different UDI was used for each sample. The reactions were pooled and purified with the NucleoSpin gel and PCR purification kit (Takara). The purified PCR product was checked before sequencing using 2% agarose gel and subjected to sequencing on a HiSeq4000 (Fulgent Genetics). Unaligned reads generated by the sequencer were stored in FASTQ files. FASTQ files were concatenated to generate one file for read1 and read2 each. The sequences were demultiplexed into individual indexes using demultiplex_dual.py. Epitopes were extracted and scored using epitope_extract_fastq_v1.1.py and merge_counts_split_v2.1.py. The ES was calculated using Microsoft Excel (Microsoft) workbooks.

[6] = I-Ag7 HIP library, one biological experiment
[7] = ES = TCRObserved - TCRPredicted, TCRPredicted = LIBObserved x SLOPE + INTERCEPT, SLOPE 1.10224, INTERCEPT -1.65707e-5
[8] = HLA-A2.1 and HLA-DQ8 SABR libraries screened simultaneously, reads mapped to DQ8 library, one biological experiment
[9] = HIP library, TCR 3, TCR_Mean of 3 replicates minus PREDICTED_TCR (slope 0.926662, intercept 2.88051e-5)

Sequence | Enrichment score [1, 6] | %GFP+CD69+ cells of SABR-NFAT-GFP-Jurkat cells ([2]; technical replicate 1) [%] | %GFP+CD69+ cells of SABR-NFAT-GFP-Jurkat cells ([2]; technical replicate 2) [%] | %GFP+CD69+ cells of SABR-NFAT-GFP-Jurkat cells ([3]; technical replicate 1) [%] | %GFP+CD69+ cells of SABR-NFAT-GFP-Jurkat cells ([3]; technical replicate 2) [%] | %GFP+CD69+ cells of SABR-NFAT-GFP-Jurkat cells ([4]; technical replicate 1) [%] | %GFP+CD69+ cells of SABR-NFAT-GFP-Jurkat cells ([4]; technical replicate 2) [%] | also measured
EVEDEVEDPQVAQLELGGGPGAGD [theoretical HIP of the I-Ag7 HIP library] | 2.439e-5 | – | – | – | – | – | – | –
EQLELGGHIEDSGE [14-mer hybrid insulin peptide spanning the fusion junction, TCR3 hit] | – | 14.1 | 13.9 | 29.1 | 28.9 | 13.2 | 14.3 | –
EVEDGIVDQCCTSICSLYQLENYC [theoretical HIP of the I-Ag7 HIP library] | 1.206e-5 | – | – | – | – | – | – | –
EVEDFVKQHLCGSHLVEALYLVCG [theoretical HIP of the I-Ag7 HIP library] | -0.0001794 | – | – | – | – | – | – | –
QVEQLELNAARDPN [14-mer hybrid insulin peptide spanning the fusion junction, TCR3 hit] | – | 2.19 | 2.2 | 66.4 | 66.1 | 2.09 | 2.09 | –
AASKERSGVSL | – | – | – | – | – | – | – | Enrichment score [5, 7]: 3.541e-5; Enrichment score [5, 8]: 3.541e-5
CDGERPTLAFLQDVM | – | – | – | – | – | – | – | Enrichment score [5, 7]: -0.0002437; Enrichment score [5, 8]: -0.0002437
EQLELGGKADEFPD [14-mer hybrid insulin peptide spanning the fusion junction, TCR3 hit] | – | 11.2 | 12.4 | 38.6 | 37.2 | 11.4 | 11.5 | –
DPQVEQLELGGSKDSDKGQQDGFE | – | – | – | – | – | – | – | Enrichment score [1, 9]: 0.001805
VEDPQVEQLELGSGKEVKGEEKGE | – | – | – | – | – | – | – | Enrichment score [1, 9]: 0.002292

Reference: publication PMC11093748, “De novo identification of CD4^+ T cell epitopes” (Nature Methods, 2024)
